Reference: US7750019B2, “Pyrimidine compound having benzyl(pyridylmethyl)amine structure and medicament comprising the same” (Kowa Company, Ltd., priority 2006, dated 2010)
Counter-ions that a name gives are not always drawn.

What was measured:
CETP [1] = target: T1, CETP (Homo sapiens, UniProt P11597); test: CETP inhibitory action in human plasma (Roar Biomedical CETP Activity kit, fluorescence); type: biochemical; settings: human plasma incubated with compound at 37° C. for 4 hours; read-out: IC50 (concentration inhibiting the CETP activity by 50%)
T1 construct: The CETP activity in this plasma was measured with Cholesteryl Ester Transfer Protein Activity kit; from tissue; host or cells: human plasma
T1 sequence (P11597 18-493): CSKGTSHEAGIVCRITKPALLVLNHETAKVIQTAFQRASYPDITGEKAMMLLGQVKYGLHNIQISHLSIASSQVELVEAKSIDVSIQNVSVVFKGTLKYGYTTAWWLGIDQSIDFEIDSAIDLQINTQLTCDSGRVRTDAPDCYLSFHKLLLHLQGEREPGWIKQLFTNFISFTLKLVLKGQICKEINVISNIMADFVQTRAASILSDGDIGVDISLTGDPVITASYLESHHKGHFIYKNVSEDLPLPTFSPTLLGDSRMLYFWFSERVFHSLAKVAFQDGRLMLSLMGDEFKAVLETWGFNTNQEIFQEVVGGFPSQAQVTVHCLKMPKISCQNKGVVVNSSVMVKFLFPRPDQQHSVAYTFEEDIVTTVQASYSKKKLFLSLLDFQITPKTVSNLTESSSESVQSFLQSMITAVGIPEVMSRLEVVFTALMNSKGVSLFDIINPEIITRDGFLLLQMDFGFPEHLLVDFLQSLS
Method: A solution obtained by dissolving an exemplary compound or a comparative compound in polyethyleneglycol/N-methyl-2-pyrrolidone (vol/vol=1/1) was added to human plasma, and the mixture was incubated in an incubator at 37° C. for 4 hours. The CETP activity in this plasma was measured with Cholesteryl Ester Transfer Protein Activity kit (Roar Biomedical, catalog No.: RB-CETP). Specifically, to each well of a 96-well plate, 95 μL of a buffer (10 mM Tris, 150 mM NaCl, 2 mM EDTA, pH 7.4), 2 μL of Donor particle and 2 μL of Acceptor particle were added, 1 μL of the human plasma after the incubation was added to the mixture, and the mixture was incubated in an incubator at 37° C. for 2 hours. After completion of the incubation, fluorescence intensity (FLU) was measured with a fluorescence plate reader (excitation wavelength: 465 nm, emission wavelength: 535 nm). In accordance with the following equation 1, the CETP activity (% of control) was obtained for the compounds of the examples and the comparative compounds for two or more concentrations. CETP activity (% of control)=(Sample FLU−Blank FLU)×100/(Control FLU−Blank FLU) (Equation 1) In the equation, the terms have the following meanings: Blank: No addition of plasma Control: Plasma not added with solution of compound Sample: Plasma added with solution of compound
A value obtained by subtracting the value of the CETP activity from 100 was defined as the CETP inhibitory rate of each exemplary compound and comparative compound, and a concentration inhibiting the CETP activity by 50% (IC50) was calculated for each exemplary compound and comparative compound from the values of the CETP inhibitory rate at two or more concentrations. As the comparative compounds, the following compounds were used, which are compounds having a benzyl(heterocyclylmethyl)amine structure described in Examples 52, 66 and 79 of Patent document 9 (International Patent Publication WO2006/073973).

CETP [2] = test: CETP inhibitory activity in blood of hamster (single oral administration); type: in vivo; settings: 30 mg/kg single oral dose in olive oil, blood collected 2 hours after administration, n=3, control 33.7 ± 2.3
Method: 1: Labeling of Donor Lipoprotein (HDL3 Fraction) with ^3H-Cholesterol and Preparation of Acceptor Lipoprotein (LDL Fraction)
The donor lipoprotein was prepared by adding KBr to plasma of healthy human subject (50 mL) to adjust the specific gravity (d) of the plasma to be 1.125, centrifuging the mixture at 100,000 rpm and 4° C. for 2.5 hours (Optima Max-E TLA-100.2 rotor, Beckman), and collecting the lower layer (HDL3 fraction, d>1.125). The resulting fraction was dialyzed against PBS (10 mM Na2HPO4, 10 mM NaH2PO4, 0.15 M NaCl, 1 mM EDTA-2Na, pH 7.4). Then, a 95% ethanol solution of 9.25 MBq 1, 2-3H(N)cholesterol (NEN™, Life Science Products, USA) was added to the sample with stirring, and the mixture was incubated at 37° C. for 18 hours. After the incubation, the mixture was added with KBr to adjust the specific gravity thereof to be 1.210, and centrifuged under the same conditions as mentioned above to obtain the upper layer (^3H-labeled HDL3 fraction, 1.125<d<1.210). The ^3H-labeled HDL3 was dialyzed against PBS, and used for the measurement of the CETP activity.
The acceptor lipoprotein was prepared as follows. Plasma of healthy human subject (30 mL) was centrifuged under the same conditions as mentioned above, and the upper layer (chylomicron and VLDL fraction, d<1.006) was removed. The lower layer was added with KBr to adjust the specific gravity thereof to be 1.063, and centrifuged under the same conditions to obtain the upper layer (LDL fraction, 1.006<d<1.063). The LDL fraction was dialyzed against PBS and used for the measurement of the CETP activity.
Each of the compounds of Examples 10 and 13 and the comparative compounds was dissolved in olive oil and orally administered once to the animals, and blood was collected from the abdominal portion of vena cava under pentobarbital anesthetization 2 hours after the administration. Further, as a control, olive oil in which any compound was not dissolved was administered, and blood was collected in a similar manner (n=3 for each).
(§1) To 10 μL of the hamster plasma, 5 μL of ^3H-labeled HDL3 and 20 μL of LDL were added, and the final volume of the mixture was made […] with a TBS solution (10 mM Tris, 0.15 M NaCl, pH 7.4). The mixture was incubated at 37° C. for 18 hours, then added with 400 μL of the TBS solution containing 0.15 M MgCl2 and 0.3% dextran sulfate, stirred (10 sec×2) with VORTEX-2 (Scientific Industries Inc.), left for 30 minutes on ice, and centrifuged at 4° C. and 8,000 rpm for 10 minutes (MX-301, TOMY). The resulting centrifugation supernatant (^3H-labeled HDL3 fraction) in a volume of 300 μL was collected in a vial, and added with 3.6 mL of a scintillator (Aquazol-2, Packard), and the mixture was stirred. Then, radioactivity of ^3H was measured with a liquid scintillation counter (TRI-CARB 2700 TR, Packard). The CETP activity (%) was obtained in accordance with the following equation 2. CETP activity (%)=(Blank dpm−Sample dpm)×100/(Blank dpm) (Equation 2) In the equation, the terms have the following meanings: Blank dpm: Value of ^3H radioactivity of sample not added with plasma Sample dpm: Value of ^3H radioactivity of sample added with compound or control sample.

CETP [3] = test: CETP inhibitory activity in blood of hamster (repetitive oral administration for 7 days); type: in vivo; settings: 100 mg/kg orally once a day for 7 days, blood collected 2 hours after final administration, n=5, control 43.5 ± 6.4
Method: as §1, with “sample. […]” for “sample.”

Q: For `CCN(CC1CCCC1)c1ccc(OC)nc1CN(Cc1cc(C#N)cc(C#N)c1)c1ncc(OCC[S+](C)[O-])cn1` (stereo not drawn) [Example 41, 2-[N-[3-(N-cyclopentylmethyl-N-ethyl)amino-6-methoxypyridin-2-yl]methyl-N-(3,5-dicyanobenzyl)]amino-5-(2-methylsulfinylethoxy)pyrimidine], which IC50 (CETP [1]) is on record?
A: The IC50 was 500 nM.

Q: With `CCN(CC1CCCC1)c1ccc(OC)nc1CN(Cc1cc(C#N)cc(C(F)(F)F)c1)c1ncc(OCCS(C)(=O)=O)cn1` [Example 10, 2-[N-(3-cyano-5-trifluoromethylbenzyl)-N-[3-(N-cyclopentylmethyl-N-ethyl)amino-6-methoxypyridin-2-yl]methyl]amino-5-(2-methylsulfonylethoxy)pyrimidine] as the compound, how does the IC50 (CETP [1]) read?
A: The IC50 was 35 nM.

Q: And the “Average CETP activity ± standard deviation (%)” value (CETP [2])?
A: The value was 2.6 ± 1.1%.

Q: What about the “Average CETP activity ± standard deviation (%)” value (CETP [3]) of the same compound?
A: The value was 11.4 ± 6.0%.

Q: What about the melting point of the same compound?
A: Its melting point is 97.2 to 98.2 °C.

Q: For `CCN(CC1CCCC1)c1ccc(OC)nc1CN(Cc1cc(C(F)(F)F)cc(C(F)(F)F)c1)c1ncc(OCCS(C)(=O)=O)cn1` [Example 13, 2-[N-[3,5-bis(trifluoromethyl)benzyl]-N-[3-(N-cyclopentylmethyl-N-ethyl)amino-6-methoxypyridin-2-yl]methyl]amino-5-(2-methylsulfonylethoxy)pyrimidine], which IC50 (CETP [1]) is on record?
A: Its IC50 is 250 nM.

Q: What about the “Average CETP activity ± standard deviation (%)” value (CETP [2]) of the same compound?
A: Its value is 8.5 ± 1.7%.

Q: And the “Average CETP activity ± standard deviation (%)” value (CETP [3])?
A: Its value is 9.0 ± 1.7%.

Q: With `CCN(CC1CCCC1)c1ccc(OC)nc1CN(Cc1cc(C#N)cc(C(F)(F)F)c1)c1ncc(OCC[S+](C)[O-])cn1` (stereo not drawn) [Example 9, 2-[N-(3-cyano-5-trifluoromethylbenzyl)-N-[3-(N-cyclopentylmethyl-N-ethyl)amino-6-methoxypyridin-2-yl]methyl]amino-5-(2-methylsulfinylethoxy)pyrimidine] as the compound, how does the IC50 (CETP [1]) read?
A: The IC50 was 90 nM.

Q: With `CCN(CC1CCCC1)c1ccc(OC)nc1CN(Cc1cc(C(F)(F)F)cc(C(F)(F)F)c1)c1ncc(OCC[S+](C)[O-])cn1` (stereo not drawn) [Example 12, 2-[N-[3,5-bis(trifluoromethyl)benzyl]-N-[3-(N-cyclopentylmethyl-N-ethyl)amino-6-methoxypyridin-2-yl]methyl]amino-5-(2-methylsulfinylethoxy)pyrimidine] as the compound, how does the IC50 (CETP [1]) read?
A: The IC50 was 350 nM.

Q: What does the source list for `CCN(CC1CCCC1)c1nc(C)c(C)cc1CN(Cc1cc(C(F)(F)F)cc(C(F)(F)F)c1)c1nnn(C)n1` [Comparative Compound 3, reference compound]?
A: IC50 (CETP [1]): 1500 nM; Average CETP activity ± standard deviation (%) (CETP [2]): 15.0 ± 4.0%

Q: With `CCN(CC1CCCC1)c1ccc(OC)nc1CN(Cc1cc(C(F)(F)F)cc(C(F)(F)F)c1)c1ncc(OCCS(C)(=O)=O)cn1` (as salt: hydrochloride) [Example 13, 2-[N-[3,5-bis(trifluoromethyl)benzyl]-N-[3-(N-cyclopentylmethyl-N-ethyl)amino-6-methoxypyridin-2-yl]methyl]amino-5-(2-methylsulfonylethoxy)pyrimidine] as the compound, how does the melting point read?
A: Its melting point is 67 to 71 °C.

Q: For `CCN(CC1CCCC1)c1ccc(OC)nc1CN(Cc1cc(C#N)cc(C#N)c1)c1ncc(OCCS(C)(=O)=O)cn1` [Example 42, 2-[N-[3-(N-cyclopentylmethyl-N-ethyl)amino-6-methoxypyridin-2-yl]methyl-N-(3,5-dicyanobenzyl)]amino-5-(2-methylsulfonylethoxy)pyrimidine], which IC50 (CETP [1]) is on record?
A: Its IC50 is 250 nM.

Q: With `CCN(CC1CCCC1)c1nc2ccccc2cc1CN(Cc1cc(C(F)(F)F)cc(C(F)(F)F)c1)c1ncccn1` [Comparative Compound 2, reference compound] as the compound, how does the IC50 (CETP [1]) read?
A: The IC50 was 20000 nM.

Q: What about the “Average CETP activity ± standard deviation (%)” value (CETP [2]) of the same compound?
A: The value was 30.3 ± 4.2%.

Q: Which IC50 (CETP [1]) does the source give for `CCN(CC1CCCC1)c1nc2ccccc2cc1CN(Cc1cc(C(F)(F)F)cc(C(F)(F)F)c1)c1nnn(C)n1` [Comparative Compound 1, reference compound] here?
A: The IC50 was 1000 nM.

Q: What about the “Average CETP activity ± standard deviation (%)” value (CETP [2]) of the same compound?
A: The value was 22.9 ± 3.3%.
